Source: PMC5298231, “The Malaria Parasite's Lactate Transporter PfFNT Is the Target of Antiplasmodial Compounds Identified in Whole Cell Phenotypic Screens” (PLoS Pathogens, 2017)
Several values for one entry are separate records, joined by “and”; a condition that tells them apart may be missing. Identical values can stand only once.

What was measured:
[1] = molecular target: T1, native PfFNT (Plasmodium falciparum, UniProt O77389); type: cell-based; settings: native PfFNT in Xenopus oocytes; pH 6.4, 27.5°C, 10 min; mean ± SEM, n = 4; read-out: IC50, inhibition of PfFNT-mediated L-[14C]lactate transport
T1 construct: expressed in transfected cells; host or cells: Xenopus laevis oocytes (cRNA microinjected, 30 ng)
Method: The PfFNT-mediated uptake of L-[^14C]lactate by oocytes expressing native PfFNT (black symbols) or oocytes expressing PfFNT^Gly107Ser (white symbols) was measured in the presence of a range of different concentrations of MMV007839 (A) and MMV000972 (B). […] To enable a visual comparison between the native PfFNT and PfFNT^Gly107Ser datasets, only part of the concentration range used for the latter is shown in the main panels. The insets show the data obtained for PfFNT^Gly107Ser over the full concentration range tested. In all cases, the data are averaged from four independent experiments (using oocytes from different frogs) and are shown ± SEM. The uptake was measured at 27.5°C over 10 min at pH 6.4 using 2.7 μM L-[^14C]lactate and 600 μM unlabelled L-lactate.
The oocyte expression vectors containing PfFNT, PfENT1 and PfCRT were made previously. […] The uptake of radiolabelled substrates was measured 2–5 days post-injection at 27.5°C in ND96 buffer (containing 96 mM NaCl, 2 mM KCl, 1 mM MgCl2, 1.8 mM CaCl2, 10 mM MES and 10 mM Tris-base; pH-adjusted to the value specified in the relevant Figure legends). […] The oocytes were then transferred to separate wells of a 96-well plate, lysed with 10% SDS, and the radioactivity measured as described previously.

[2] = system: PfENT1; assay: [3H]hypoxanthine uptake by Xenopus oocytes expressing PfENT1; type: cell-based, Plasmodium falciparum; settings: 1 μM and 4 μM; pH 6.0, 30 min
Excerpt: (PfCRT; from the chloroquine-resistant Dd2 strain) and on [^3H]hypoxanthine transport by oocytes expressing the P. falciparum equilibrative nucleoside/nucleobase transporter PfENT1 [27, 28].
The oocyte expression vectors containing PfFNT, PfENT1 and PfCRT were made previously. The Gly107Ser mutant form of PfFNT was generated through site-directed mutagenesis of the oocyte expression vector containing wild-type (3D7) PfFNT using primers 9 and 10 (S2 Table). Oocytes were harvested from adult female Xenopus laevis frogs and prepared as described previously. cRNA was made using the mMessage mMachine T7 transcription kit and the MEGAclear kit (Ambion) and microinjected into oocytes as outlined elsewhere. The amount of cRNA injected (per oocyte) was 30 ng for PfFNT, 10 ng for PfENT1, and 20 ng for PfCRT. The uptake of radiolabelled substrates was measured 2–5 days post-injection at 27.5°C in ND96 buffer (containing 96 mM NaCl, 2 mM KCl, 1 mM MgCl2, 1.8 mM CaCl2, 10 mM MES and 10 mM Tris-base; pH-adjusted to the value specified in the relevant Figure legends). […] Each experiment used ten oocytes for each condition tested. The influx of the radiolabelled substrate was halted by removing the reaction buffer and washing the oocytes twice in ice-cold ND96 buffer (3.5 mL). The oocytes were then transferred to separate wells of a 96-well plate, lysed with 10% SDS, and the radioactivity measured as described previously.
The data are averaged from four to five independent experiments (performed using oocytes from different frogs) and are shown + SEM. In B, the uptake of [^3H]hypoxanthine (0.36 μM) was measured over 30 min at pH 6.0. […] The data are averaged from three to six independent experiments (performed using oocytes from different frogs) and are shown + SEM. […] (TIF) Click here for additional data file.

T1 sequence (O77389 whole entry): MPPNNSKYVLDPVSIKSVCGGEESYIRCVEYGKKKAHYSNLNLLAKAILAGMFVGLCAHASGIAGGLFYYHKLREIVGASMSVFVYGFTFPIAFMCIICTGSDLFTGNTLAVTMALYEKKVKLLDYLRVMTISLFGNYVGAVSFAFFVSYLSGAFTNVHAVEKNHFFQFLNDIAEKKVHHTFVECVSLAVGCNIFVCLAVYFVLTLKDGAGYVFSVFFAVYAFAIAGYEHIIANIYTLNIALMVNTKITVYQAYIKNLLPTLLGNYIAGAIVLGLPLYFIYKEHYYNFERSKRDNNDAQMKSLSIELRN

Structure (SMILES): COc1ccc2c(c1)OC(O)(C(F)(F)C(F)(F)F)CC2=O (centres unmarked) [MMV007839]
- IC50 [1]: 22.5 nM and 23 nM
- Inhibition of [3H]hypoxanthine uptake by PfENT1-expressing oocytes [2]: not inhibiting
